Test results as given in patent publication US20250025526A1, “COMBINATION THERAPY FOR THE TREATMENT OF FRIEDREICH'S ATAXIA” (Stealth BioTherapeutics Inc., priority 2023, published 2025).
Where a SMILES comes first, the peptide text is derived from it. [ ]: non-standard residue; d: D form. Dmt = Cc1cc(O)cc(C)c1C[C@H](N)C(=O)O

What was measured:
[1] = system: healthy (GM08402; Coriell) fibroblasts; experiment: Cytoprotection assay, RSL3-induced ferroptosis, healthy fibroblasts (CellTiter-Glo cell viability); format: cell-based, human; conditions: healthy patient derived fibroblasts; 18 hour pre-incubation with test compounds 0.001 uM to 1 uM; then 1 uM RSL3 for 4 hours; FIG. 1
Procedure: (§1) To initiate the cytoprotection experiment, healthy (GM08402; Coriell) and FA (GM03665; Coriell) fibroblasts were resuspended in assay medium (Minimum Essential Medium Eagle w/Earles Salts and L-glutamine (MEM; Corning)+15% Qualified Fetal Bovine Serum (FBS)+penicillin (100 U)/streptomycin ([…]), seeded at 10,000 cells per well in a clear, tissue cultured treated 96 well plate), and incubated at 37° C. Eight hours later, the assay medium was manually removed and test compounds, elamipretide (Stealth Biotherapeutics Inc., Needham, MA) and omaveloxolone were added to a final volume of 100 uL at concentrations ranging between 0.001 uM and 1 uM. Following an 18 hour incubation at 37° C., the assay medium was again manually removed. Healthy fibroblasts and FA fibroblasts were then treated with 100 μL of 1 uM and 0.5 uM RSL3 (Sigma, Catalog #1219810), respectively, in assay medium for 4 hours at 37° C. Cell viability was assessed with CellTiter-Glo Luminescent Cell Viability (Promega). Luminescence units were quantified by GEN5 software on a BioTek SYNERGY neo2 plate reader (LUM filter). The data obtained for the health cells are graphically illustrated in FIG. 1 and the data obtained for the FA fibroblasts are graphically illustrated in FIG. 2. […]

[2] = system: FA (GM03665; Coriell) fibroblasts; experiment: Cytoprotection assay, RSL3-induced ferroptosis, FA fibroblasts (CellTiter-Glo cell viability); format: cell-based, human; conditions: FA patient derived fibroblasts; 18 hour pre-incubation with test compounds 0.001 uM to 1 uM; then 0.5 uM RSL3 for 4 hours; FIG. 2
Procedure: as §1

SMILES: Cc1cc(O)cc(C)c1C[C@H](NC(=O)[C@H](N)CCCNC(=N)N)C(=O)N[C@@H](CCCCN)C(=O)N[C@@H](Cc1ccccc1)C(N)=O [elamipretide, H-D-Arg-2′,6′Dmt-Lys-Phe-NH2] (H-[dR][Dmt]KF-NH2)
- protective/rescue effect on the RSL3 treated cells (cell viability) [1]: no apparent effect
- protective/rescue effect on the RSL3 treated cells (cell viability) [2]: no apparent effect

SMILES: CC1(C)CC[C@]2(NC(=O)C(C)(F)F)CC[C@]3(C)[C@H](C(=O)C=C4[C@@]5(C)C=C(C#N)C(=O)C(C)(C)[C@@H]5CC[C@]43C)[C@@H]2C1 [omaveloxolone, Omaveloxolone]
- protective/rescue effect on the RSL3 treated cells (cell viability) [1]: significant protective/rescue effect
- protective/rescue effect on the RSL3 treated cells (cell viability) [2]: significant protective/rescue effect
